The values that follow come from patent US9012431B2, “Boron-containing small molecules as anti-inflammatory agents” (Anacor Pharmaceuticals, Inc., priority 2008, dated 2015).

Structures are written as SMILES. Where only a bound is given, the exact number is not on record here.

As usually defined, the IC50 is the concentration that gives 50% inhibition. A lower IC50 goes with greater potency. In general, inhibition refers to how much of the control response was suppressed. A low value points to a weak effect.

In one assay the test system is TNF-α. In words: Cytokine assay, TNF-α release from PBMC. The assay is classed as cell-based. As to conditions: 1 μg/mL LPS; for IC50: Homo sapiens, PBMC, 24 h, supernatant at 24 hours; for inhibition at 10 µM: human PBMC, 24 hours. As for the experimental part: (§1) The ability of the compounds described herein to inhibit pro-inflammatory cytokines or phsophodiesterases were tested.
(§2) Frozen human peripheral blood mononucleocytes (PBMC) were thawed and centrifuged. Cryopreservation media was aspirated off of the cell pellet, and the cells were resuspended in fresh culture media (CM) comprising RPMI 1640 and 10% FBS in 96 well plates. Test article was dissolved in DMSO to form a 10 mM sample (DMSO, 100%). The 10 mM samples were diluted to 100 μM in CM (DMSO, 1%), then further diluted to 10, 1, 0.1, 0.01 μM in 200 μL of CM (n=3). […] IL-23 was assayed using a commercial ELISA kit (R&D Systems).

The next assay has as its system IL-2. In words: Cytokine assay, IL-2 release from PBMC. Format: cell-based. The conditions noted are these: human PBMC, 20 ug/mL PHA; for IC50: supernatant at 24 hours; for inhibition at 10 µM: 24 hours. As for the experimental part:
as §1, §2

The subject of the next assay is IFN-γ. In words: Cytokine assay, IFN-γ release from PBMC. The assay is classed as cell-based. As to conditions: human PBMC, 20 ug/mL PHA; for IC50: supernatant at 24 hours; for inhibition at 10 µM: 24 hours. As for the experimental part: as §1, §2
For the next assay, the system named is IL-5. In words: Cytokine assay, IL-5 release from PBMC. Format: cell-based. The conditions noted are these: human PBMC, 20 ug/mL PHA; for IC50: supernatant at 48 hours; for inhibition at 10 µM: 48 hours. As for the experimental part:
as §1, §2

The subject of a further assay is IL-10. In words: Cytokine assay, IL-10 release from PBMC. The assay is classed as cell-based. The conditions noted are these: human PBMC, 20 ug/mL PHA; for IC50: supernatant at 48 hours; for inhibition at 10 µM: 48 hours. As for the experimental part: as §1, §2
The test system of assay [1] is T1, PDE4 partially purified from human U-937 myeloid leukemia cells.
T1 construct: PDE4 partially purified from human U-937 myeloid leukemia cells was used
As to the kind of experiment: PDE4 Assay (enzyme from U-937 cells, [3H]cAMP). The assay is classed as biochemical. The conditions noted are these: PDE4 from U-937 cells, Tris buffer pH 7.5, 20 minutes at 25° C. As for the experimental part: Test article and/or vehicle was incubated with 0.2 mg enzyme and 1 mM cAMP containing 0.01 mM [3H]cAMP in Tris buffer pH 7.5 for 20 minutes at 25° C. The reaction was terminated by boiling for 2 minutes and the resulting AMP is converted to adenosine by addition of 10 mg/ml snake venom nucleotidase and further incubation at 37° C. for 10 minutes. Unhydrolyzed cAMP is bound to AG1-X2 resin, and remaining [3H]Adenosine in the aqueous phase is quantitated by scintillation counting.

Take `N#Cc1ccc(Oc2ccc3c(c2)COB3O)cc1C(=O)O` [D8, 5-(3-Carboxy-4-cyanophenoxy)-1,3-dihydro-1-hydroxy-2,1-benzoxaborole]: the IC50 in the assay on TNF-α was greater than 10 µM; with IL-2, 1 to 4 µM; in the assay on IFN-γ, greater than 10 µM; in the assay on IL-5 it was greater than 10 µM; in the assay with IL-10, greater than 10 µM.
For the compound `N#Cc1ccc(Oc2ccc3c(c2)COB3O)c(OCC(=O)O)c1` [D17, 5-[2-(Carboxymethoxy)-4-cyanophenoxy]-1,3-dihydro-1-hydroxy-2,1-benzoxaborole], the concentration for half-maximal inhibition (IC50) in the assay on TNF-α was 4 to 10 µM; in the assay with IL-2, greater than 10 µM; in the assay with IFN-γ it was greater than 10 µM; in assay [1], less than 1 µM.
As for `O=C(O)c1ccc(Oc2ccc3c(c2)COB3O)c(O)c1` [D18, 5-(4-Carboxy-2-hydroxyphenoxy)-1,3-dihydro-1-hydroxy-2,1-benzoxaborole], the IC50 in the assay on TNF-α, in the assay with IL-2 and with IFN-γ was greater than 10 µM in each case.
Consider `CCOC(=O)c1ccc(Oc2ccc3c(c2)COB3O)c(O)c1` [D19, 5-(4-Ethoxycarbonyl-2-hydroxyphenoxy)-1,3-dihydro-1-hydroxy-2,1-benzoxaborole], for which the IC50 was 1 to 4 µM in the assay with TNF-α, 1 to 4 µM in the assay with IL-2, 1 to 4 µM in the assay with IFN-γ and less than 1 µM in assay [1].
On to `CCOC(=O)c1ccc(Oc2ccc3c(c2)COB3O)c(OC)c1` [D20, 5-(4-Ethoxycarbonyl-2-methoxyphenoxy)-1,3-dihydro-1-hydroxy-2,1-benzoxaborole], for which the IC50 (in the assay with TNF-α; in the assay on IL-2; in the assay on IFN-γ; in assay [1]) was less than 1 µM throughout.
Consider `CCOC(=O)c1ccc(Oc2ccc3c(c2)COB3O)c(OC2CCCC2)c1` [D21, 5-[4-Ethoxycarbonyl-2-(cyclopentyloxy)phenoxy]-1,3-dihydro-1-hydroxy-2,1-benzoxaborole], for which the concentration for half-maximal inhibition (IC50) was 1 to 4 µM in the assay on TNF-α, less than 1 µM with IL-2, less than 1 µM with IFN-γ and less than 1 µM in assay [1].
In the assay on TNF-α, `N#Cc1ccc(Oc2ccc3c(c2)COB3O)c(C=O)c1` [D23, 5-(4-Cyano-2-formylphenoxy)-1,3-dihydro-1-hydroxy-2,1-benzoxaborole] showed an IC50 of 4 to 10 µM.
Turning to `N#Cc1ccc(Oc2ccc3c(c2)COB3O)cc1OCC(=O)O` [D39, [2-Cyano-5-(1-hydroxy-1,3-dihydro-benzo[c][1,2]oxaborol-5-yloxy)-phenoxy]-acetic acid], the inhibition at 10 µM in the assay on TNF-α is 30 to 60%; in the assay with IL-2 it was 30 to 60%; in the assay with IFN-γ it was 30 to 60%; with IL-5, less than 30%.
Regarding `CC1CCN(C(=O)COc2cc(Oc3ccc4c(c3)COB4O)ccc2C#N)CC1` [D42, 4-(1-Hydroxy-1,3-dihydro-benzo[c][1,2]oxaborol-5-yloxy)-2-[2-(4-methyl-piperidin-1-yl)-2-oxo-ethoxy]-benzonitrile], the inhibition at 10 µM with TNF-α lay within 60 to 90%; with IL-2, 90 to 100%; in the assay with IFN-γ it was 90 to 100%; with IL-5, 60 to 90%; in the assay with IL-10 it was 60 to 90%.
Regarding `C[NH+]1CCN(C(=O)COc2cc(Oc3ccc4c(c3)COB4O)ccc2C#N)CC1` [D43, 4-(1-Hydroxy-1,3-dihydro-benzo[c][1,2]oxaborol-5-yloxy)-2-[2-(4-methyl-piperazin-1-yl)-2-oxo-ethoxy]-benzonitrile hexafluorophosphate], the inhibition at 10 µM with TNF-α was less than 30%; with IL-2, 90 to 100%; in the assay with IFN-γ, 60 to 90%; with IL-5, 60 to 90%; in the assay on IL-10, 60 to 90%.
In the case of `O=C(O)c1cnc(Oc2ccc3c(c2)COB3O)c(Cl)c1` [D49, 5-Chloro-6-(1-hydroxy-1,3-dihydrobenzo[c][1,2]oxaborol-5-yloxy)nicotinic acid], the IC50 in the assay on TNF-α lay within 4 to 10 µM; in the assay with IL-2 it was 4 to 10 µM; with IFN-γ it was 4 to 10 µM; in assay [1] it was 1 to 4 µM.
For `OCc1ccc(Oc2ccc3c(c2)COB3O)nc1` [D64, 5-(5-(Hydroxymethyl)pyridin-2-yloxy)benzo[c][1,2]oxaborol-1 (3H)-ol], the IC50 in the assay on TNF-α is 1 to 4 µM; with IL-2 it was 4 to 10 µM; in the assay on IFN-γ, 4 to 10 µM; with IL-5 it was greater than 10 µM; in the assay with IL-10, 4 to 10 µM.
In the case of `CC(C)(C)/[N+]([O-])=C/c1ccc(Oc2ccc3c(c2)COB3O)nc1` [D70, (Z)—N-((6-(1-hydroxy-1,3-dihydrobenzo[c][1,2]oxaborol-5-yloxy)pyridin-3-yl)methylene)-2-methylpropan-2-amine oxide], the IC50 in the assay on TNF-α is 1 to 4 µM; with IL-2 it was less than 1 µM; with IFN-γ, 1 to 4 µM; in assay [1] it was 1 to 4 µM.
With `CN(C)CCOC(=O)c1ccc(Oc2ccc3c(c2)COB3O)cc1` [D75, 4-(1-Hydroxy-1,3-dihydro-benzo[c][1,2]oxaborol-5-yloxy)-benzoic acid 2-dimethylamino-ethyl ester], the IC50 with TNF-α was 1 to 4 µM; in the assay with IL-2, 1 to 4 µM; with IFN-γ, 4 to 10 µM; in the assay on IL-5, 4 to 10 µM; in the assay with IL-10, greater than 10 µM.
As for `O=C(NCCO)c1ccc(Oc2ccc3c(c2)COB3O)cc1` [D77, 4-(1-Hydroxy-1,3-dihydro-benzo[c][1,2]oxaborol-5-yloxy)-N-(2-hydroxy-ethyl)-benzamide], the IC50 in the assay with TNF-α was greater than 10 µM; in the assay with IL-2, 1 to 4 µM; in the assay with IFN-γ, 1 to 4 µM; in the assay on IL-5, greater than 10 µM; with IL-10, 4 to 10 µM.
`CN1CCN(C(=O)c2ccc(Oc3ccc4c(c3)COB4O)cc2)CC1` [D79, [4-(1-Hydroxy-1,3-dihydro-benzo[c][1,2]oxaborol-5-yloxy)-phenyl]-(4-methyl-piperazin-1-yl)-methanone]: the IC50 in the assay with TNF-α, in the assay on IL-2, in the assay on IFN-γ, in the assay with IL-5 and with IL-10 was greater than 10 µM each time.
For the compound `CC(=O)N1CCN(C(=O)c2ccc(Oc3ccc4c(c3)COB4O)cc2)CC1` [D80, 1-{4-[4-(1-Hydroxy-1,3-dihydro-benzo[c][1,2]oxaborol-5-yloxy)-benzoyl]-piperazin-1-yl}-ethanone], the IC50 in the assay with TNF-α, in the assay on IL-2, with IFN-γ, in the assay with IL-5 and in the assay with IL-10 was greater than 10 µM throughout.
For `CN(C)CCNC(=O)c1ccc(Oc2ccc3c(c2)COB3O)cc1` [D81, N-(2-Dimethylamino-ethyl)-4-(1-hydroxy-1,3-dihydro-benzo[c][1,2]oxaborol-5-yloxy)-benzamide], the IC50 is greater than 10 µM with TNF-α; greater than 10 µM in the assay on IL-2; greater than 10 µM in the assay with IFN-γ; 4 to 10 µM in the assay on IL-5; greater than 10 µM in the assay with IL-10.
Compound `N#Cc1ccc(Oc2ccc3c(c2)COB3O)nc1O` [D108, 2-hydroxy-6-(1-hydroxy-1,3-dihydrobenzo[c][1,2]oxaborol-5-yloxy)nicotinonitrile] showed an IC50 in assay [1] of 4 to 10 µM.
Take `COc1nc(Oc2ccc3c(c2F)COB3O)ccc1C#N` [D114, 6-(4-Fluoro-1-hydroxy-1,3-dihydrobenzo[c][1,2]oxaborol-5-yloxy)-2-methoxynicotinonitrile]: the IC50 is less than 1 µM in the assay on TNF-α; less than 1 µM in the assay on IL-2; less than 1 µM with IFN-γ; less than 1 µM with IL-5; greater than 10 µM with IL-10.
As to `CC(C)(C)Nc1nc(Oc2ccc3c(c2)COB3O)ccc1C#N` [D129, 2-tert-butylamino-6-(1-hydroxy-1,3-dihydro-benzo[c][1,2]oxaborol-5-yloxy)-nicotinonitrile], the half-maximal inhibitory concentration (IC50) (in the assay on TNF-α; in assay [1]) was less than 1 µM in each case.
`N#Cc1ccc(Oc2ccc3c(c2)COB3O)c(OC2CCCC2)c1` [D133, 3-(cyclopentyloxy)-4-(1-hydroxy-1,3-dihydrobenzo[c][1,2]oxaborol-5-yloxy)benzonitrile]: the IC50 (with TNF-α; in assay [1]) was less than 1 µM throughout.
For the compound `N#Cc1ccc(Oc2ccc3c(c2)COB3O)c(OCC2CC2)c1` [D134, 3-(cyclopropylmethoxy)-4-(1-hydroxy-1,3-dihydrobenzo[c][1,2]oxaborol-5-yloxy)benzonitrile], the IC50 (with TNF-α; in assay [1]) was less than 1 µM in each case.
On to `N#Cc1ccc(Oc2ccc3c(c2)COB3O)c(OCC2CCCC2)c1` [D135, 3-(cyclopentylmethoxy)-4-(1-hydroxy-1,3-dihydrobenzo[c][1,2]oxaborol-5-yloxy)benzonitrile], for which the IC50 (with TNF-α; in assay [1]) was less than 1 µM each time.
For `CC(C)COc1nc(Oc2ccc3c(c2)COB3O)ccc1C#N` [D136, 6-(1-Hydroxy-1,3-dihydro-benzo[c][1,2]oxaborol-5-yloxy)-2-isobutoxy-nicotinonitrile], the IC50 (with TNF-α; in assay [1]) was less than 1 µM in each case.
